Values quoted from earlier work in patent US6455592B1, “Use of hydrophilic penetration agents in dermatological compositions for the treatment of onychomycoses, and corresponding compositions” (Novartis AG, priority 1991, dated 2002).
Where a name gives a salt, the structure may show the parent alone.

Conditions: oral treatment with 250 mg/day over 8 weeks

## CN(C/C=C/C#CC(C)(C)C)Cc1cccc2ccccc12 [terbinafine-HCl, Terbinafine hydrochloride]
  concentration of terbinafine-HCl in the nails: 0.4±0.15 ng of terbinafine-HCl per mg of nail material
